Reference: US10590123B2, “Pesticidally active amide heterocyclic derivatives with sulphur containing substituents” (SYNGENTA PARTICIPATIONS AG, priority 2014, dated 2020)

Experiments:
[1] = system: Bemisia tabaci (Cotton White Fly); test: Example B6: Activity against Bemisia tabaci, sprayed cotton leaf discs; type: in vivo; conditions: foliar, 144 h, application rate 200 ppm, adult white flies, 6 days after incubation
Experimental: Example B6: Activity Against Bemisia tabaci (Cotton White Fly)
Cotton leaf discs were placed on agar in 24-well microtiter plates and sprayed with aqueous test solutions prepared from 10′000 ppm DMSO stock solutions. After drying the leaf discs were infested with adult white flies. The samples were checked for mortality 6 days after incubation.

[2] = system: Euschistus heros (Neotropical Brown Stink Bug); test: Example B7: Activity against Euschistus heros, sprayed soybean leaf; type: in vivo; conditions: 120 h, application rate 200 ppm, N-2 nymphs, 5 days after infestation
Experimental: Example B7: Activity Against Euschistus heros (Neotropical Brown Stink Bug)
Soybean leaf on agar in 24-well microtiter plates were sprayed with aqueous test solutions prepared from 10′000 ppm DMSO stock solutions. After drying the leaf were infested with N-2 nymphs. The samples were assessed for mortality 5 days after infestation.

[3] = system: Plutella xylostella (Diamond Back Moth); test: Example B3: Activity against Plutella xylostella, artificial diet; type: in vivo; conditions: 120 h, application rate 200 ppm, L2 larvae, 5 days after infestation, read-out: effect in at least one of the two categories (mortality or growth inhibition)
Experimental: Example B3: Activity Against Plutella xylostella (Diamond Back Moth)
(§1) 24-well microtiter plates with artificial diet were treated with aqueous test solutions prepared from 10′000 ppm DMSO stock solutions by pipetting. After drying, the plates were infested with L2 larvae (10 to 15 per well). The samples were assessed for mortality and growth inhibition in comparison to untreated samples 5 days after infestation.

[4] = system: Diabrotica Balteata (Corn Root Worm); test: Example B4: Activity against Diabrotica balteata, sprayed maize sprouts; type: in vivo; conditions: 96 h, application rate 200 ppm, L2 larvae, 4 days after infestation, read-out: effect in at least one of the two categories (mortality or growth inhibition)
Experimental: Example B4: Activity Against Diabrotica Balteata (Corn Root Worm)
as §1, with “Maize sprouts, placed on an agar layer in 24-well” for “24-well”, “plates” for “plates with artificial diet”, “spraying.” for “pipetting.”, “(6” for “(10”, “10” for “15”, “4” for “5”

[5] = system: Spodoptera littoralis (Egyptian Cotton Leaf Worm); test: Example B1: Activity against Spodoptera littoralis, sprayed cotton leaf discs; type: in vivo; conditions: foliar, 72 h, application rate 200 ppm, L1 larvae, 3 days after infestation, read-out: control in at least one of the three categories (mortality, anti-feedancy or growth inhibition)
Experimental: Example B1: Activity Against Spodoptera littoralis (Egyptian Cotton Leaf Worm)
Cotton leaf discs were placed on agar in 24-well microtiter plates and sprayed with aqueous test solutions prepared from 10′000 ppm DMSO stock solutions. After drying the leaf discs were infested with five L1 larvae. The samples were assessed for mortality, anti-feedant effect, and growth inhibition in comparison to untreated samples 3 days after infestation. Control of Spodoptera littoralis by a test sample is when at least one of mortality, anti-feedant effect, and growth inhibition is higher than the untreated sample.

[6] = system: Myzus persicae (Green Peach Aphid); test: Example B8: Activity against Myzus persicae, sprayed sunflower leaf discs; type: in vivo; conditions: foliar, 144 h, application rate 200 ppm, aphid population of mixed ages, 6 days after infestation
Experimental: Example B8: Activity Against Myzus persicae (Green Peach Aphid)
(§2) Sunflower leaf discs were placed on agar in a 24-well microtiter plate and sprayed with aqueous test solutions prepared from 10′000 ppm DMSO stock solutions. After drying, the leaf discs were infested with an aphid population of mixed ages. The samples were assessed for mortality 6 days after infestation.

[7] = system: Spodoptera littoralis (Egyptian Cotton Leaf Worm); test: Example B2: Activity against Spodoptera littoralis, systemic via lettuce roots in agar; type: in vivo; conditions: 144 h, application rate 12.5 ppm, 6 days after infestation, read-out: control in at least one of the three categories (mortality, anti-feedancy or growth inhibition)
Source text: Example B2: Activity Against Spodoptera littoralis (Egyptian Cotton Leaf Worm)
Test compounds were applied by pipette from 10′000 ppm DMSO stock solutions into 24-well plates and mixed with agar. Lettuce seeds were placed on the agar and the multi well plate was closed by another plate which contains also agar. After 7 days the roots have absorbed the compound and the lettuce has grown into the lid plate. The lettuce leafs were now cut off into the lid plate. Spodoptera eggs were pipetted through a plastic stencil on a humid gel blotting paper and the plate closed with it.
The samples were assessed for mortality, anti-feedant effect and growth inhibition in comparison to untreated samples 6 days after infestation.

[8] = system: Frankliniella occidentalis (Western Flower Thrips); test: Example B5: Activity against Frankliniella occidentalis, sprayed sunflower leaf discs; type: in vivo; conditions: foliar, 168 h, application rate 200 ppm, population of mixed ages, 7 days after infestation
Experimental: Example B5: Activity Against Frankliniella occidentalis (Western Flower Thrips)
as §2, with “in” for “in a”, “plates” for “plate”, “drying” for “drying,”, “a Frankliniella” for “an aphid”, “7” for “6”

| melting point [°C] | Structure (SMILES) | mortality at 200 ppm [1] [%] | mortality at 200 ppm [2] [%] | percent effect (mortality or growth inhibition) at 200 ppm [3] [%] | percent effect (mortality or growth inhibition) at 200 ppm [4] [%] | percent control (mortality, anti-feedant effect or growth inhibition) at 200 ppm [5] [%] | mortality at 200 ppm [6] [%] | percent control (mortality, anti-feedant effect or growth inhibition) at 12.5 ppm [7] [%] | mortality at 200 ppm [8] [%] |
| --- | --- | --- | --- | --- | --- | --- | --- | --- | --- |
| – | CCS(=O)(=O)c1cc(-c2cccc(SC)c2)cnc1C(=O)N(C)c1nnc(C(F)(F)F)s1 [Compound P30] | ≥ 80 | ≥ 80 | ≥ 80 | ≥ 80 | ≥ 80 | ≥ 80 | – | – |
| – | CCS(=O)(=O)c1cc(-c2ncc(Cl)cc2Cl)cnc1C(=O)N(C)c1nnc(C(F)(F)F)s1 [Compound P47] | ≥ 80 | ≥ 80 | ≥ 80 | ≥ 80 | ≥ 80 | ≥ 80 | ≥ 80 | – |
| 184 to 187 | CCSc1cc(-c2ccc(Cl)cc2)cnc1C(=O)Nc1nnc(C(F)(F)C(F)(F)F)s1 | – | – | – | – | – | – | – | – |
| – | CCS(=O)(=O)c1cc(-c2ccc(C#N)cc2)cnc1C(=O)N(C)c1nnc(C(F)(F)F)s1 [Compound P28] | ≥ 80 | ≥ 80 | ≥ 80 | ≥ 80 | ≥ 80 | ≥ 80 | ≥ 80 | – |
| – | CCS(=O)(=O)c1cc(-c2ccc(Cl)cn2)cnc1C(=O)N(C)c1nnc(C(F)(F)F)s1 [Compound P52] | ≥ 80 | ≥ 80 | ≥ 80 | ≥ 80 | ≥ 80 | ≥ 80 | ≥ 80 | ≥ 80 |
| 159 to 161 | CCS(=O)(=O)c1cc(-c2cc(F)cc(F)c2)cnc1C(=O)N(C)c1nnc(C(F)(F)C(F)(F)F)s1 | – | – | – | – | – | – | – | – |
| 254 to 256 | CCSc1cc(-c2ccc(C(F)(F)F)cc2)cnc1C(=O)Nc1nnc(C(F)(F)C(F)(F)F)s1 | – | – | – | – | – | – | – | – |
| – | CCS(=O)(=O)c1cc(-c2cc(F)cc(F)c2)cnc1C(=O)N(C)c1nnc(C(F)(F)F)s1 [Compound P35] | ≥ 80 | ≥ 80 | ≥ 80 | ≥ 80 | ≥ 80 | ≥ 80 | ≥ 80 | – |
| – | CCS(=O)(=O)c1cc(-c2cccc(C(F)(F)F)c2)cnc1C(=O)N(C)c1nnc(C(F)(F)F)s1 [Compound P37] | ≥ 80 | ≥ 80 | ≥ 80 | ≥ 80 | ≥ 80 | – | – | – |
| – | CCS(=O)(=O)c1cc(-c2ncc(F)cc2F)cnc1C(=O)N(C)c1nnc(C(F)(F)F)s1 [Compound P44] | ≥ 80 | ≥ 80 | ≥ 80 | ≥ 80 | ≥ 80 | ≥ 80 | ≥ 80 | – |
| – | CCS(=O)(=O)c1cc(-c2ccc(Cl)cc2)cnc1C(=O)N(C)c1nnc(C(F)(F)F)s1 [Compound P2, 5-(4-chlorophenyl)-3-ethylsulfonyl-N-methyl-N-[5-(trifluoromethyl)-1,3,4-thiadiazol-2-yl]pyridine-2-carboxamide] | ≥ 80 | – | ≥ 80 | ≥ 80 | ≥ 80 | – | ≥ 80 | ≥ 80 |
| – | CCS(=O)(=O)c1cc(-c2ncccn2)cnc1C(=O)N(C)c1nnc(C(F)(F)F)s1 [Compound P43] | – | ≥ 80 | ≥ 80 | ≥ 80 | ≥ 80 | ≥ 80 | ≥ 80 | – |
| 242 to 244 | CCS(=O)(=O)c1cc(-c2cc(F)cc(F)c2)cnc1C(=O)Nc1nnc(C(F)(F)C(F)(F)F)s1 | – | – | – | – | – | – | – | – |
| – | CCS(=O)(=O)c1cc(-c2cccc(F)c2)cnc1C(=O)N(C)c1nnc(C(F)(F)F)s1 [Compound P26] | – | ≥ 80 | ≥ 80 | ≥ 80 | ≥ 80 | ≥ 80 | ≥ 80 | – |
| – | CCS(=O)(=O)c1cc(-c2cc(Cl)ccn2)cnc1C(=O)N(C)c1nnc(C(F)(F)F)s1 [Compound P42] | – | ≥ 80 | ≥ 80 | ≥ 80 | ≥ 80 | ≥ 80 | ≥ 80 | – |
| – | CCS(=O)(=O)c1cc(-c2nccc(C(F)(F)F)n2)cnc1C(=O)N(C)c1nnc(C(F)(F)F)s1 [Compound P41] | ≥ 80 | ≥ 80 | ≥ 80 | ≥ 80 | ≥ 80 | ≥ 80 | ≥ 80 | – |
| – | CCS(=O)(=O)c1cc(-c2ccnc(F)c2)cnc1C(=O)N(C)c1nnc(C(F)(F)F)s1 [Compound P56] | ≥ 80 | ≥ 80 | ≥ 80 | ≥ 80 | ≥ 80 | ≥ 80 | ≥ 80 | – |
| – | CCS(=O)(=O)c1cc(-c2ccc(C(F)(F)F)cc2)cnc1C(=O)N(C)c1nnc(C(F)(F)F)s1 [Compound P4] | ≥ 80 | ≥ 80 | ≥ 80 | ≥ 80 | ≥ 80 | – | – | – |
| – | CCS(=O)(=O)c1cc(-c2ccc(F)cc2F)cnc1C(=O)N(C)c1nnc(C(F)(F)F)s1 [Compound P25] | ≥ 80 | ≥ 80 | ≥ 80 | ≥ 80 | ≥ 80 | ≥ 80 | ≥ 80 | – |
| 213 to 215 | CCS(=O)(=O)c1cc(-c2cccc(Cl)c2)cnc1C(=O)N(C)c1nnc(C(F)(F)F)s1 | – | – | – | – | – | – | – | – |
| 174 to 176 | CCS(=O)(=O)c1cc(-c2ccc(C(F)(F)F)cc2)ccc1C(=O)N(C)c1nnc(C(F)(F)F)s1 | – | – | – | – | – | – | – | – |
